Data as given in publication PMC11858513, “Antibiofilm Activities of Tritrpticin Analogs Against Pathogenic Pseudomonas aeruginosa PA01 Strains” (Molecules, 2025).
In brackets after ≈: the same amount, converted by molar mass. Where two headings read alike, the source gives them in different places. Residues, ends and D or L forms follow the SMILES beside them.

Experiments:
[1] = system: P. aeruginosa PAO1; format: cell-based, Pseudomonas aeruginosa; conditions: Table 5; PAO1, 1x BM2; biofilms on pegs, cells plated and counted; three biological replicates
Method: (§1) We note the close agreement with the MBIC and MBEC values determined by the fluorescence and CV methods, similar to what we found in our previous work for an S. aureus MRSA strain [23]. We also re-evaluated the MBEC values that are measured using the Calgary biofilm device (CBD), where biofilms form on pegs, rather than at the bottom of the 96-well plates. […] In particular, we find that the single Pro9Ala Tritrp-P9A-substituted version has better MIC, MBIC and MBEC activities than the parent peptide as well as the Tritrp-P59A analog with both prolines substituted to Ala.
Figure 5 The MBEC values for the peptides were assessed against P. aeruginosa PAO1 in the presence of 1× BM2 medium. The eradication of biofilm cells was determined for the peptides using the counting of biofilm cells formed by Pa PAO1. Three biological replicates were run for each test sample, and the mean was calculated for counted cell values. Data points with error bars indicate the standard deviation (±SD).
(§2) The methods to determine the MIC, MBIC and MBEC have been described in detail in our previous publication. The green fluorescent protein (GFP)-producing P. aeruginosa and S. aureus strains that were used in this work were also described in the earlier publication. Fluorescence detection was used as the main method to estimate the number of cells entrapped in the biofilm matrix. The methodology used for evaluation of the antibiofilm properties against an original Pseudomonas PA01 strain by crystal violet dye staining and the use of the Calgary biofilm device has been described elsewhere. The regular PA01 strain was provided by Dr. J. Harrison, Calgary. All measurements were carried out on an Eppendorf AF2200 plate reader. Every 96-well plate included controls for bacterial cell growth without peptide treatment and media alone. All measurements were carried out in triplicate, and the values in the figures represent the average and the error bars are standard deviation.

[2] = system: P. aeruginosa PAO1 GFP; test: MBEC, biofilm eradication, GFP fluorescence method; format: cell-based, Pseudomonas aeruginosa; conditions: Table 2, BM2 medium, mean of three biological replicates
Method: (§3) Figure 1 The MIC (A), MBIC (B) and MBEC (C) values for the tritrpticin analog peptides were assessed against Pa PAO1 GFP. The MIC values were determined by measuring the absorbance of bacterial cells at 600 nm. The MBIC and MBEC values were determined by recording the fluorescence at 480 nm and 530 nm from the biofilms of GFP-expressing PAO1. Three biological replicates were run for each test sample, and the mean was calculated for the recorded absorption or fluorescence values. In the graphs, the error bars represent the standard deviation (±SD).
(§4) Figure 2 The MIC (A), MBIC (B) and MBEC (C) values for the tritrpticin-Lys derivative peptides were assessed against Pa PAO1 GFP. The MIC values were determined by measuring the absorbance of bacterial cells at 600 nm. The MBIC and MBEC values were determined by recording the fluorescence at 480 nm and 530 nm from the biofilms of GFP-expressing PAO1. Three replicates were run for each sample, the values were averaged and the error bars represent the standard deviation (±SD).
as §2

[3] = system: S. aureus GFP; test: MBEC, GFP fluorescence method; format: cell-based, Staphylococcus aureus; conditions: Table 4, Sa GFP, 10% TSB and 0.1% glucose, mean of three biological replicates
Method: as §3, with “3” for “1”, “Sa” for “Pa PAO1”, “Sa.” for “PAO1.”
as §2

[4] = system: P. aeruginosa PAO1 GFP; test: MBIC, prevention of biofilm formation, GFP fluorescence method; format: cell-based, Pseudomonas aeruginosa; conditions: Table 2, BM2 medium, mean of three biological replicates
Method: as §3, §4, §2

[5] = system: S. aureus GFP; test: MIC against planktonic cells, absorbance at 600 nm; format: cell-based, Staphylococcus aureus; conditions: Table 4; Sa GFP, 10% TSB and 0.1% glucose; absorbance 600 nm; mean of three biological replicates
Method: as §3, with “3” for “1”, “Sa” for “Pa PAO1”, “Sa.” for “PAO1.”
as §2

[6] = system: P. aeruginosa PAO1 GFP; test: MIC against planktonic cells, absorbance at 600 nm; format: cell-based, Pseudomonas aeruginosa; conditions: Table 2, BM2 medium, absorbance 600 nm, mean of three biological replicates
Method: as §3, §4, §2

[7] = system: P. aeruginosa PAO1; format: cell-based
Method: as §1
(§5) Figure 4 The MIC (A), MBIC (B) and MBRC (C) values for the peptides were assessed against P. aeruginosa PAO1 in the presence of 1× BM2. The inhibition of planktonic cells, the inhibition of biofilm cells and the reduction in biofilm cells were determined for the peptides by recording of the planktonic cells at 600 nm and quantification of biofilms formed by Pa PAO1 using crystal violet at 595 nm, respectively. Three biological replicates were run for each test sample, and the mean was calculated for the recorded absorption values. Data points with error bars indicate the standard deviation (±SD).
(§6) Figure 6 The MIC (A), MBIC (B) and MBEC (C) values for the tritrpticin-Lys derivatives against P. aeruginosa PAO1 were assessed by the crystal violet (CV) assay for the measurement of inhibition of biofilm formation and eradication of biofilm cells, respectively. The biofilm cells were rinsed, stained with 0.1% crystal violet for 15 min and then rinsed again. The CV was released from biofilm cells by the addition of 95% ethanol and quantified by reading on a spectrometer at 595 nm. Three replicates were run for each sample, the values were averaged and the error bars represent the standard deviation (±SD).
as §2

[8] = system: S. aureus GFP; test: MBIC, GFP fluorescence method; format: cell-based, Staphylococcus aureus; conditions: Table 4, Sa GFP, 10% TSB and 0.1% glucose, mean of three biological replicates
Method: as §3, with “3” for “1”, “Sa” for “Pa PAO1”, “Sa.” for “PAO1.”
as §2

[9] = system: P. aeruginosa PAO1; format: cell-based, Pseudomonas aeruginosa; conditions: Table 5; regular PAO1 (no GFP), 1x BM2; absorbance 600 nm; mean of three biological replicates
Method: as §5, §6, §2

[10] = system: S. aureus GFP; format: cell-based, Staphylococcus aureus; conditions: Table 4; Sa GFP; lowest concentration of peptide with no bacterial growth seen on the spot agar plate
Description: as §2

[11] = Table 5, PAO1, 1x BM2, crystal violet at 595 nm, mean of three biological replicates
[12] = Table 5, minimum biofilm reduction concentration, PAO1, 1x BM2, crystal violet at 595 nm, mean of three biological replicates

Row | Compound | MBEC from Calgary Biofilm Device (CBD) LD50 [1] [µmol/L] | MBEC from Calgary Biofilm Device (CBD) LD90 [1] [µmol/L] | MBEC at 488 and 530 nm LD50 [2] [µmol/L] | MBEC at 488 and 530 nm LD90 [2] [µmol/L] | MBEC at 488 and 530 nm LD50 [3] [µmol/L] | MBEC at 488 and 530 nm LD90 [3] [µmol/L] | MBIC at 488 and 530 nm LD50 [4] [µmol/L] | MBIC at 488 and 530 nm LD90 [4] [µmol/L] | MIC at 600 nm LD50 [5] [µM] | MIC at 600 nm LD90 [5] [µM] | MIC at 600 nm LD50 [6] [µM] | MIC at 600 nm LD90 [6] [µM] | MBIC (CV at 595 nm) LD50 [7, 11] [µmol/L] | MBIC (CV at 595 nm) LD90 [7, 11] [µmol/L] | MBRC (CV at 595 nm) LD90 [7, 12] [µmol/L] | MBIC at 488 and 530 nm LD50 [8] [µmol/L] | MBIC at 488 and 530 nm LD90 [8] [µmol/L] | MIC at 600 nm LD50 [9] [µM] | MIC at 600 nm LD90 [9] [µM] | MBC Agar Plate [10] [µM] | also measured
1 | CC(C)C[C@H](NC(=O)[C@H](Cc1ccccc1)NC(=O)[C@@H]1CCCN1C(=O)[C@H](Cc1ccc(O)cc1)NC(=O)[C@H](Cc1ccc(O)cc1)NC(=O)[C@H](Cc1ccc(O)cc1)NC(=O)[C@@H]1CCCN1C(=O)[C@H](Cc1ccccc1)NC(=O)[C@H](CCCNC(=N)N)NC(=O)[C@H](CCCNC(=N)N)NC(=O)[C@@H](N)C(C)C)C(=O)N[C@@H](CCCNC(=N)N)C(=O)N[C@@H](CCCNC(=N)N)C(N)=O [Tritrp-W678Y] (H-VRRFPYYYPFLRR-NH2) | >128 | >128 | >128 | >128 | 2 | 8 | >64 | >64 | 1 (≈ 1.83 µg/mL) | 2 (≈ 3.66 µg/mL) | >64 | >64 | >64 | >64 | >128 | 1 | 2 | >64 | >64 | 16 (≈ 29.3 µg/mL) | MBRC (CV at 595 nm) LD50 ([7]; PAO1): 128 µmol/L
2 | VRRFP(hW)(hW)(hW)PFLRR-NH2 [Tritrp-W678hW, Tritrp analog with hydroxy-Trp in place of the three Trp] | >128 | >128 | >128 | >128 | 4 | 8 | 16 | 64 | 2 | 4 | 32 | 64 | 32 | >64 | >128 | 2 | 4 | >64 | >64 | 16 | MBRC (CV at 595 nm) LD50 [7, 12]: >128 µmol/L
3 | CC(C)C[C@H](NC(=O)[C@H](Cc1ccccc1)NC(=O)[C@@H]1CCCN1C(=O)[C@H](Cc1ccccc1)NC(=O)[C@H](Cc1ccccc1)NC(=O)[C@H](Cc1ccccc1)NC(=O)[C@@H]1CCCN1C(=O)[C@H](Cc1ccccc1)NC(=O)[C@H](CCCNC(=N)N)NC(=O)[C@H](CCCNC(=N)N)NC(=O)[C@@H](N)C(C)C)C(=O)N[C@@H](CCCNC(=N)N)C(=O)N[C@@H](CCCNC(=N)N)C(N)=O [Tritrp-W678F] (H-VRRFPFFFPFLRR-NH2) | 128 | 128 | 32 | 64 | 2 | 4 | 32 | 64 | 0.5 (≈ 0.892 µg/mL) | 0.5 (≈ 0.892 µg/mL) | 32 (≈ 57.1 µg/mL) | >64 | 64 | >64 | >128 | 1 | 1 | 32 (≈ 57.1 µg/mL) | >64 | 8 (≈ 14.3 µg/mL) | MBRC (CV at 595 nm) LD50 ([7]; PAO1): 128 µmol/L
4 | CC(C)[C@H](NC(=O)[C@@H]1CCCN1C(=O)[C@@H](N)Cc1ccccc1)C(=O)N[C@H](C(=O)N[C@@H](Cc1c[nH]c2ccccc12)C(=O)N[C@@H](CCCNC(=N)N)C(=O)N[C@@H](Cc1c[nH]c2ccccc12)C(=O)N[C@@H](Cc1c[nH]c2ccccc12)C(=O)N[C@@H](CCCNC(=N)N)C(=O)N[C@@H](Cc1c[nH]c2ccccc12)C(=O)N[C@@H](Cc1c[nH]c2ccccc12)C(=O)N[C@@H](CCCNC(=N)N)C(=O)NCC(N)=O)[C@@H](C)O [PuroA-Arg, reference compound] (H-FPVTWRWWRWWRG-NH2) | 16 | 64 | 32 | 128 | 8 | 16 | 8 | 8 | 4 (≈ 7.67 µg/mL) | 4 (≈ 7.67 µg/mL) | 8 (≈ 15.3 µg/mL) | 16 (≈ 30.7 µg/mL) | 16 | 16 | 32 | 4 | 4 | 8 (≈ 15.3 µg/mL) | 16 (≈ 30.7 µg/mL) | 8 (≈ 15.3 µg/mL) | MBRC (CV at 595 nm) LD50 [7, 12]: 32 µmol/L
